Legend:
[1] = Acceptance and tolerance of imidacloprid diet by sand rats; assay type: in vivo, Psammomys obesus
Source text: (§1) The test insecticide, imidacloprid at 250 ppm (0.025%) was incorporated into the feed together with orange, yellow, or green dye and fed to rats housed in standard laboratory caging. The treatment groups consisted of 6 males and 9 females; Controls: 3 males and 4 females with a body weight between 125-250 g.
(§2) DESIGN—Five sand rats were provided the reformulated diet for each of the treatment levels (50 ppm, 100 ppm, 250 ppm). Five sand rats were provided with control diets without imidacloprid. Two additional rats were provided with control diets containing green dye.
(§3) Feces were collected from the Alpha-Dri bedding for the last 5 days of the 7 day treatment period. Feces were weighed and transferred to a plastic bag labeled with the animal's cage identification number and stored frozen at −20° C.

P. papatasi larvae = assay: Larval bioassay with feces of sand rats fed imidacloprid diet; assay type: in vivo
Experimental: A second trial was carried out using sand rats (Psammomys obesus) as the carrier of sand flies (P. papatasi) and imidacloprid as the insecticide. This rodent species was targeted since it serves as the source of blood meals for adult sand flies and its feces serves as a platform for larval development in Middle East ecosystems.
as §1, §2, §3
Bioassays of the larval groups comprised: four imidacloprid treatments (0, 50, 100, 250 ppm) (number of replicates per assay n=5), one control group (n=8), and one green dye treatment (n=2). These bioassays were conducted with 1st and 2-3rd instar larvae and were repeated three times. Bioassays were conducted in 6 well culture plates (Corning, Inc) with 5 ml of plaster of Paris in the bottom of each well. The plaster was saturated with distilled water before the experiment, and was blotted with filter paper to remove standing water immediately before use. The effect of imidacloprid treatment on 1st and 2nd-3rd instar larvae was tested. The control group was provided using standard larval diet. This allowed comparison of sand fly survival between those feeding on feces from sand rats that fed on non treated feed and those fed on standard sand fly diet. First instar larvae were obtained by adding 50 eggs to each well and allowed to hatch and fed on regular diet for 2-3 days. At this time ca. 0.1 g of crushed pellets or control feed was added. Second-3rd instar larvae were obtained by letting 1st instar larvae grow on standard diet in the wells until moulted. At this, time crushed pellets or control feed (0.1 g) was added. […] The wells of the plate were covered with parafilm which was punctured with a needle to allow for ventilation. The wells were kept in a humidified room (26° C./75% RH) inside a covered tube which contained a saturated sponge. The container was placed in an environmental chamber at 28 C, 90% RH, and a photoperiod of 14:10 (L:D) h. […] Alimentation was noted by observation of the presence of frass in the vials and dark material in the guts of the larvae.

[2] = cited from earlier work
[3] = tested on: P. argentipes 1st instar larvae; assay: Larval bioassay with feces of insecticide treated R. rattus (feed through); assay type: in vivo; conditions: for Mean ± SEM survival (days) of P. arg larvae post-exposure / P. argentipes larvae mortality (%): feces of R. rattus day-1 post treatment
Experimental: In the first study, a feed through study comparing diflubenzuron, fipronil, ivermectin, and eprinomectin was conducted on rats (Rattus rattus). Fecal samples were collected after three (3) consecutive days of administration of the trial products. The efficacy of the drugs administered during the blind study underwent testing in larval bioassays with P. argentipes 1st instar larvae. Commercially available chicken feed was mixed with the appropriate concentrations of each insecticide compound and used as is in the trial.
Twelve (12) locally purchased rats (Rattus rattus) of mixed sex were utilized in a small study testing the efficacy of four feed through insecticides. Five treatment groups of two rats each were randomly identified and fed diets consisting of locally available chicken feed treated with one of the following compounds: diflubenzuron (0.048%), fipronil (0.015%), ivermectin (0.025%), and eprinomectin (0.01% and 0.025%). Two rats served as control and were fed only chicken feed. Rats were fed 20 g of their assigned diet daily at the same time, with daily consumption and spillage calculated for a period of three (3) days. Sand fly analyses were conducted simultaneously.
[…] Collected feces were dried at approximately 40° C. in an oven then ground into a fine powder utilizing a pestle and mortar and frozen at −20° C. until larval bioassays were initiated.
Larval bioassay pots were prepared using 48 mm, 100 g round Dibbi jars. Dishes were prepared by burning several small holes into the bottom of the dish with a soldering iron and filling them with a small layer of plaster (¼ to ½ inch depth). Approximately 15-20 holes were punctured into the lids using 24 gauge needles. For simpler mortality counting, pots were quartered and each quadrant numbered using an ultra fine black Sharpie.
For each individual post-treatment bioassays, thirteen (13) dishes were loaded with 10 day old 1st instar P. argentipes larvae; twelve (12) pots were provided with approximately 0.005 g of the treated feces, with two sample pots per treated bandicoot rat, and one overall control sample fed only standard larval diet. See Table 1 for sample/treatment correlations. Larvae were loaded into bioassay pots and provided with their designated treatment sample. Mortality counts of larvae were conducted every 24 hours post-treatment until 100% mortality, or pupation, was reached.

## O=[N+]([O-])NC1=NCCN1Cc1ccc(Cl)nc1 [imidacloprid]
[1]; P=0.1199
  Difference in fecal production between treatment groups: no significant difference
[1]; diets 50, 100, 250 ppm, 7 day treatment
  Health of sand rats on diet: without any apparent health abnormalities
P. papatasi larvae; by day 5, feces from sand rats administered 100 ppm
  Survivorship for 1st instar larvae: < 5%
P. papatasi larvae; by day 5, feces from sand rats administered 250 ppm
  Survivorship for 1st instar larvae: < 5%
P. papatasi larvae; by day 7, feces from sand rats administered 250 ppm
  Survivorship for 2nd/3rd instar larvae: 10%
P. papatasi larvae; by seven days, feces from diets containing 250 ppm
  Larval mortality: 90%
P. papatasi larvae; sand rats fed diets of 100 ppm and 250 ppm
  Larvicidal effect of feces for 1st instar larvae: rapidly and highly larvicidal
[2]; three days post oral treatment
  Residue in blood: zero residue

## ivermectin
[3]; 250 ppm
  Mean ± SEM survival (days) of P. arg larvae post-exposure: 7.40 ± 0.11 days
  P. argentipes larvae mortality (%): 100%
[3]; feces of R. rattus fed 0.025% in feed
  Day of observation by which 100% larval mortality was reached: ≤ 8 days

## O=C(NC(=O)c1c(F)cccc1F)Nc1ccc(Cl)cc1 [diflubenzuron]
[3]; 480 ppm
  Mean ± SEM survival (days) of P. arg larvae post-exposure: 9.75 ± 0.71 days
  P. argentipes larvae mortality (%): 100%

## CC1(C)C(C=C(Cl)Cl)C1C(=O)OCc1cccc(Oc2ccccc2)c1 (stereo not shown) [permethrin]
[2]; rodents, oral treatment
  Time within which the majority of the product is excreted: ≤ 48 h
[2]; topical
  Absorption by the skin: not readily absorbed by the skin

## eprinomectin
[3]; 100 ppm
  Mean ± SEM survival (days) of P. arg larvae post-exposure: 12.65 ± 0.70 days
  P. argentipes larvae mortality (%): 100%
[3]; 250 ppm
  Mean ± SEM survival (days) of P. arg larvae post-exposure: 10.70 ± 0.38 days
  P. argentipes larvae mortality (%): 100%
